Experimental data from patent US20260159486A1, “BENZO[H]QUINAZOLINE-4-AMINE DERIVATIVES FOR THE TREATMENT OF CANCER” (Redona Therapeutics, Inc., priority 2021, published 2026).

Assays:
[1] = target: T1, recombinant human CLK3 (Homo sapiens, UniProt P49761); assay: CLK3 kinase assay (LANCE Ultra); type: biochemical; conditions: CLK3 0.5 nM, ATP 300 μM, 3 hours at 30° C.
T1 construct: purchased Thermo Fisher Scientific PV3826
Outline: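 Recombinant human CLK3 (0.5 nM) with ULight-CREBtide (50 nM) and 300 μM ATP, 3 h at 30 °C in kinase buffer; EDTA stop, then Eu-anti-phospho-CREB antibody (2 nM, 1 h RT), TR-FRET read at 665/620 nm. Inhibition normalized to DMSO and no-ATP wells; IC50 from 4-parameter fit, ten 1:3 concentrations in duplicate.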

[2] = tested on: CAL-51 cells; assay: CAL-51 proliferation assay; type: cell-based; conditions: YO-PRO-1 Iodide readout
Outline: (§1)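 Cells seeded at 750 per well, treated next day for 72 h at 37 °C with 0.5% final DMSO. Cell number read by YO-PRO-1 fluorescence after lysis, normalized to DMSO (100%) and time-zero cells (0%). GI50 from 4-parameter logistic fit, maximum constrained to 100%.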

[3] = tested on: MDA-MB-231 cells; assay: MDA-MB-231 proliferation assay; type: cell-based; conditions: YO-PRO-1 Iodide readout
Outline: as §1

T1 sequence (P49761 whole entry): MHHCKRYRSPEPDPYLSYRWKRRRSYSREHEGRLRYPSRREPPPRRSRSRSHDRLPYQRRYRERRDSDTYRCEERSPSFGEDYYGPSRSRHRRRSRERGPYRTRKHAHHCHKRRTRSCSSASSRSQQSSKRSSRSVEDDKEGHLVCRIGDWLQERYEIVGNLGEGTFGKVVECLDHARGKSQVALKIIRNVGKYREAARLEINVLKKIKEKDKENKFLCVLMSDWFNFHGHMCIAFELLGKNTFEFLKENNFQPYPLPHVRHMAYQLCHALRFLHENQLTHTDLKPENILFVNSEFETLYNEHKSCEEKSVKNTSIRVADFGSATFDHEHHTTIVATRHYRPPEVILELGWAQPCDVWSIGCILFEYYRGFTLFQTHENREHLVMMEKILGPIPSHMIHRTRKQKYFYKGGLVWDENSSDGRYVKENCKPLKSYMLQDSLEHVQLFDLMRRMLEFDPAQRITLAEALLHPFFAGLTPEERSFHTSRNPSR

SMILES | IC50 [1] [nM] | GI50 ([3]; 72 hours) [nM] | GI50 ([3]; Homo sapiens, MDA-MB-231, 72 h) [nM] | GI50 ([2]; 72 hours) [nM] | GI50 ([2]; Homo sapiens, CAL-51, 72 h) [nM]
CC1(C)Cc2c(ccc(Br)c2N2CCC(C#N)C2)-c2ncnc(N)c21 (stereo not drawn) [Example 120, 1-(4-amino-8-bromo-5,5-dimethyl-6H-benzo[h]quinazolin-7-yl)pyrrolidine-3-carbonitrile] | 101 to 1000 |  | 100 to 2000 |  | 100 to 2000
COc1ccc2c(c1N)CC(C)(C)c1c(N)ncnc1-2 [Example 2, 8-methoxy-5,5-dimethyl-6H-benzo[h]quinazoline-4,7-diamine] | 30 to 100 |  | 100 to 2000 |  | 100 to 2000
CN(CC(C)(C)C(N)=O)c1c(O[C@H]2CC[C@H](N)CC2)ccc2c1CC(C)(C)c1c(N)ncnc1-2 [Example 88, 3-[[4-amino-8-(trans-4-aminocyclohexoxy)-5,5-dimethyl-6H-benzo[h]quinazolin-7-yl]-methyl-amino]-2,2-dimethyl-propanamide] | 30 to 100 |  | > 2000 |  | 100 to 2000
CN(CC(C)(C)C#N)c1c(O[C@H]2CC[C@H](N)CC2)ccc2c1CC(C)(C)c1c(N)ncnc1-2 [Example 91, 3-[[4-amino-8-(trans-4-aminocyclohexoxy)-5,5-dimethyl-6H-benzo[h]quinazolin-7-yl]-methyl-amino]-2,2-dimethyl-propanenitrile] | < 30 |  | < 100 |  | < 100
CC(=O)Nc1c(O[C@H]2CC[C@H](N)CC2)ccc2c1CC(C)(C)c1c(N)ncnc1-2 [Example 6, N-[4-amino-8-(trans-4-aminocyclohexoxy)-5,5-dimethyl-6H-benzo[h]quinazolin-7-yl]acetamide] | 101 to 1000 |  | > 2000 |  | 100 to 2000
CN(CCCC#N)c1c(O[C@H]2CC[C@H](N)CC2)ccc2c1CC(C)(C)c1c(N)ncnc1-2 [Example 58, 4-[[4-amino-8-(4-trans-aminocyclohexoxy)-5,5-dimethyl-6H-benzo[h]quinazolin-7-yl]-methyl-amino]butanenitrile] | < 30 |  | 100 to 2000 |  | < 100
COc1ccc2c(c1NCC(O)CO)CC(C)(C)c1c(N)ncnc1-2 (stereo not drawn) [Example 27, 3-[(4-amino-8-methoxy-5,5-dimethyl-6H-benzo[h]quinazolin-7-yl)amino]propane-1,2-diol] | 30 to 100 |  | 100 to 2000 |  | 100 to 2000
CC1(C)Cc2c(ccc(O[C@H]3CC[C@H](N)CC3)c2NC[C@@H]2CNC(=O)O2)-c2ncnc(N)c21 [Example 129, (5R)-5-[[[4-amino-8-(trans-4-aminocyclohexoxy)-5,5-dimethyl-6H-benzo[h]quinazolin-7-yl]amino]methyl]oxazolidin-2-one] | < 30 |  | > 2000 |  | > 2000
CN(CC#N)C(=O)c1c(O[C@H]2CC[C@H](N)CC2)ccc2c1CC(C)(C)c1c(N)ncnc1-2 [Example 94, 4-amino-8-(trans-4-aminocyclohexoxy)-N-(cyanomethyl)-N,5,5-trimethyl-6H-benzo[h]quinazoline-7-carboxamide] | 101 to 1000 |  | > 2000 |  | 100 to 2000
Nc1ncnc2c1C1(CCCC1)Cc1c-2ccc(O[C@H]2CC[C@H](N)CC2)c1NCCO [Example 60, 2-[[4-amino-8-(4-trans-aminocyclohexoxy)spiro[6H-benzo[h]quinazoline-5,1′-cyclopentane]-7-yl]amino]ethanol] | 30 to 100 |  | 100 to 2000 |  | 100 to 2000
CN(CCNS(C)(=O)=O)c1c(O[C@H]2CC[C@H](N)CC2)ccc2c1CC(C)(C)c1c(N)ncnc1-2 [Example 39, N-[2-[[4-amino-8-(trans-4-aminocyclohexoxy)-5,5-dimethyl-6H-benzo[h]quinazolin-7-yl]-methyl-amino]ethyl]methanesulfonamide] | 101 to 1000 |  | > 2000 |  | 100 to 2000

Further lines, with some results ahead:

IC50 [1] [nM] | GI50 ([3]; 72 hours) [nM] | GI50 ([3]; Homo sapiens, MDA-MB-231, 72 h) [nM] | SMILES | GI50 ([2]; 72 hours) [nM] | GI50 ([2]; Homo sapiens, CAL-51, 72 h) [nM]
30 to 100 | < 100 |  | COC1CCN(c2c(O[C@H]3CC[C@H](N)CC3)ccc3c2CC(C)(C)c2c(N)ncnc2-3)C1 (single isomer, unassigned) [Example 73, 8-(trans-4-aminocyclohexoxy)-7-(3-methoxypyrrolidin-1-yl)-5,5-dimethyl-6H-benzo[h]quinazolin-4-amine] | < 100 | 
< 30 |  | 100 to 2000 | CC1(C)Cc2c(ccc(O[C@H]3CC[C@H](N)CC3)c2NCCO)-c2ncnc(N)c21 [Example 14, 2-[[4-amino-8-(trans-4-aminocyclohexoxy)-5,5-dimethyl-6H-benzo[h]quinazolin-7-yl]amino]ethanol] |  | 100 to 2000
< 30 |  | 100 to 2000 | CCN(CCO)c1c(O[C@H]2CC[C@@H](N)CC2)ccc2c1CC(C)(C)c1c(N)ncnc1-2 [Example 22, 2-[[4-amino-8-(4-cis-aminocyclohexoxy)-5,5-dimethyl-6H-benzo[h]quinazolin-7-yl]-ethyl-amino]ethanol] |  | < 100
< 30 |  | > 2000 | CC1(C)Cc2c(ccc(O[C@H]3CC[C@H](N)CC3)c2N2CCC(C(N)=O)C2)-c2ncnc(N)c21 (stereo partly drawn) [Example 77, 1-[4-amino-8-(trans-4-aminocyclohexoxy)-5,5-dimethyl-6H-benzo[h]quinazolin-7-yl]pyrrolidine-3-carboxamide] |  | 100 to 2000
< 30 |  | < 100 | CN(CCC#N)c1c(O[C@H]2CC[C@H](N3CCOCC3)CC2)ccc2c1CC(C)(C)c1c(N)ncnc1-2 [Example 52, 3-[[4-amino-5,5-dimethyl-8-(trans-4-morpholinocyclohexoxy)-6H-benzo[h]quinazolin-7-yl]-methyl-amino]propanenitrile] |  | < 100
30 to 100 |  | 100 to 2000 | CC1(C)Cc2c(ccc3c2N(CCC#N)CCO3)-c2ncnc(N)c21 [Example 117, 3-(7-amino-6,6-dimethyl-3,5-dihydro-2H-quinazolino[7,8-f][1,4]benzoxazin-4-yl)propanenitrile] |  | < 100
30 to 100 |  | 100 to 2000 | CSCCN(C)c1c(O[C@H]2CC[C@@H](N)CC2)ccc2c1CC(C)(C)c1c(N)ncnc1-2 [Example 31, 8-(cis-4-aminocyclohexoxy)-N7,5,5-trimethyl-N7-(2-methylsulfanylethyl)-6H-benzo[h]quinazoline-4,7-diamine] |  | < 100
30 to 100 |  | 100 to 2000 | COC1CCN(c2c(O[C@H]3CC[C@H](N)CC3)ccc3c2CC(C)(C)c2c(N)ncnc2-3)C1 (single isomer, unassigned) [Example 63, 8-(trans-4-aminocyclohexoxy)-7-(3-methoxypyrrolidin-1-yl)-5,5-dimethyl-6H-benzo[h]quinazolin-4-amine] |  | 100 to 2000
< 30 |  | 100 to 2000 | CC1(C)Cc2c(ccc(O[C@H]3CC[C@H](N)CC3)c2N2CCCS2(=O)=O)-c2ncnc(N)c21 [Example 119, 8-(trans-4-aminocyclohexoxy)-7-(1,1-dioxo-1,2-thiazolidin-2-yl)-5,5-dimethyl-6H-benzo[h]quinazolin-4-amine] |  | 100 to 2000
< 30 |  | 100 to 2000 | COCCN(C)c1c(O[C@H]2CC[C@@H](N)CC2)ccc2c1CC1(CCCC1)c1c(N)ncnc1-2 [Example 75, 8-(cis-4-aminocyclohexoxy)-N7-(2-methoxyethyl)-N7-methyl-spiro[6H-benzo[h]quinazoline-5,1′-cyclopentane]-4,7-diamine] |  | < 100
< 30 |  | 100 to 2000 | CC1(C)Cc2c(ccc(O[C@H]3CC[C@H](N)CC3)c2SCCC#N)-c2ncnc(N)c21 [Example 108, 3-[[4-amino-8-(trans-4-aminocyclohexoxy)-5,5-dimethyl-6H-benzo[h]quinazolin-7-yl]sulfanyl]propanenitrile] |  | < 100
< 30 |  | < 100 | CC1(C)Cc2c(ccc(O[C@H]3CC[C@H](N)CC3)c2N2CCC(C#N)C2)-c2ncnc(N)c21 (stereo partly drawn) [Example 66, 1-[4-amino-8-(trans-4-aminocyclohexoxy)-5,5-dimethyl-6H-benzo[h]quinazolin-7-yl]pyrrolidine-3-carbonitrile] |  | < 100
101 to 1000 |  | > 2000 | CC1(C)Cc2c(ccc3c2NCCO3)-c2ncnc(N)c21 [Example 3, 6,6-dimethyl-2,3,4,5-tetrahydroquinazolino[7,8-f][1,4]benzoxazin-7-amine] |  | 100 to 2000
30 to 100 |  | 100 to 2000 | CC1(C)Cc2c(ccc(O[C@H]3CC[C@H](N)CC3)c2S(=O)(=O)NCC#N)-c2ncnc(N)c21 [Example 116, 4-amino-8-(trans-4-aminocyclohexoxy)-N-(cyanomethyl)-5,5-dimethyl-6H-benzo[h]quinazoline-7-sulfonamide] |  | 100 to 2000
< 30 |  | 100 to 2000 | CN(CCC#N)c1c(Br)ccc2c1CC(C)(C)c1c(N)ncnc1-2 [Example 115, 3-[(4-amino-8-bromo-5,5-dimethyl-6H-benzo[h]quinazolin-7-yl)-methyl-amino]propanenitrile] |  | < 100
< 30 |  | 100 to 2000 | CC1(C)Cc2c(ccc(O[C@H]3CC[C@H](N)CC3)c2OCCC#N)-c2ncnc(N)c21 [Example 71, 3-[[4-amino-8-(trans-4-aminocyclohexoxy)-5,5-dimethyl-6H-benzo[h]quinazolin-7-yl]oxy]propanenitrile] |  | < 100
